Test results: patent US10130633B2, “Compounds” (BAYER PHARMA AKTIENGESELLSCHAFT, priority 2013, dated 2018)
Structures can show the parent of a compound that is named as a salt.

How the values were obtained:
[1] = test system: HCT116 FOP control reporter cell line; assay: HCT116 FOPFlash control reporter assay (FOP control vector, non-functional TCF elements); assay type: cell-based; conditions: HCT116 FOP control reporter cells, 36 hours incubation, luciferase expression
Source text: In a parallel approach, HCT116 cells were cotransfected with the FOP control vector and pcDNA3. The FOP vector is identical to the TOP construct, but it contains instead of functional TCF elements a randomized, non-functional sequence. For this transfection a stable transfected cell line was generated as well.

[2] = test system: constitutive active colorectal cancer cell (CRC) Wnt pathway; assay: HCT116 TOPFlash cellular reporter assay (Super TopFlash luciferase), constitutive active Wnt pathway; assay type: cell-based; conditions: HCT116 TOP reporter cells, 36 hours incubation, luciferase expression
Procedure: In order to discover and characterize small molecules which inhibit the constitutive active colorectal cancer cell (CRC) Wnt pathway, a cellular reporter assay was employed. […] Stable transfectants were generated by cotransfection with pcDNA3 and selection of stable transfected cells with 1 mg/ml G418.

IC50 [1] [nM]	IC50 ([1]; Homo sapiens, HCT-116, 36 h) [nM]	IC50 ([2]; Homo sapiens, HCT-116, 36 h) [nM]	SMILES	IC50 [2] [nM]
28600			CC(C(=O)Nc1cc(NC(=O)c2ccc(-c3cccc(F)c3)nc2)ccc1OC(F)(F)F)N1CCOCC1 (stereo not drawn) [Example 201, 6-(3-fluorophenyl)-N-[3-{[2-(morpholin-4-yl)propanoyl]amino}-4-(trifluoromethoxy)phenyl] nicotinamide]	106
	14000	370	O=C(Nc1ccc(-c2ccccc2F)nc1)c1ccc(F)c(NC(=O)C2(N3CCOCC3)CC2)c1 [Example 77, 4-fluoro-N-[6-(2-fluorophenyl)pyridin-3-yl]-3-({[1-(morpholin-4-yl)cyclopropyl]carbonyl}amino)benzamide]	
	19500	458	Cc1ccc(-c2nnc(NC(=O)c3ccc(OC(F)(F)F)c(NC(=O)CN4CCN(C)CC4)c3)s2)cc1 [Example 102, N-[5-(4-methylphenyl)-1,3,4-thiadiazol-2-yl]-3-{[(4-methylpiperazin-1-yl)acetyl]amino}-4-(trifluoromethoxy)benzamide]	
	7100	215	Cc1ccccc1-c1nnc(NC(=O)c2ccc(OC(F)F)c(NC(=O)CN3CCN(C)CC3)c2)s1 [Example 175, 4-(difluoromethoxy)-N-[5-(2-methylphenyl)-1,3,4-thiadiazol-2-yl]-3-{[(4-methylpiperazin-1-yl)acetyl]amino}benzamide]	
	≥ 50000	1800	COc1ccc(C(=O)Nc2ccc(-c3ccccc3F)nc2)cc1NC(=O)CN1C[C@@H]2C[C@H]1CO2 [Example 3, N-[6-(2-fluorophenyl)pyridin-3-yl]-4-methoxy-3-{[(1S,4S)-2-oxa-5-azabicyclo[2.2.1]hept-5-ylacetyl]amino}benzamide]	
	≥ 50000	102	CN1CCN(C2(C(=O)Nc3cc(C(=O)Nc4nnc(-c5ccccc5)s4)ccc3OC3CC3)CC2)CC1 [Example 171, 4-(cyclopropyloxy)-3-({[1-(4-methylpiperazin-1-yl)cyclopropyl]carbonyl}amino)-N-(5-phenyl-1,3,4-thiadiazol-2-yl)benzamide]	
	8800	71.7	CC(C(=O)Nc1cc(NC(=O)c2ccc(-c3cccc(F)c3)nc2)ccc1OC(F)(F)F)N1C[C@@H]2C[C@H]1CO2 (stereo partly drawn) [Example 199, 6-(3-fluorophenyl)-N-[3-({2-[(1S,4S)-2-oxa-5-azabicyclo[2.2.1]hept-5-yl]propanoyl}amino)-4-(trifluoromethoxy)phenyl] nicotinamide]	
	≥ 50000	680	O=C(Cn1cccn1)Nc1cc(C(=O)Nc2ccc(-c3ccccc3F)nc2)ccc1OC1CC1 [Example 141, 4-(cyclopropyloxy)-N-[6-(2-fluorophenyl)pyridin-3-yl]-3-[(1H-pyrazol-1-ylacetyl)amino]benzamide]	
10000		138	CC(C(=O)Nc1cc(NC(=O)c2ccc(-c3cccc(F)c3)nc2)ccc1OC(F)(F)F)N1CCOCC1 (stereo not drawn) [Example 189, 6-(3-fluorophenyl)-N-[3-{[2-(morpholin-4-yl)propanoyl]amino}-4-(trifluoromethoxy)phenyl] nicotinamide]	
	≥ 50000	66	O=C(CN1CCCOCC1)Nc1cc(C(=O)Nc2nnc(-c3ccccc3)s2)ccc1OC(F)(F)F [Example 169, 3-[(1,4-oxazepan-4-ylacetyl)amino]-N-(5-phenyl-1,3,4-thiadiazol-2-yl)-4-(trifluoromethoxy)benzamide]	
	10200	245	O=C(CN1CCN(C2CC2)CC1)Nc1cc(C(=O)Nc2ccc(-c3ccccc3F)nc2)ccc1C(F)(F)F [Example 227, 3-{[(4-cyclopropylpiperazin-1-yl)acetyl]amino}-N-[6-(2-fluorophenyl)pyridin-3-yl]-4-(trifluoromethyl)benzamide]	
	≥ 50000	1700	O=C(CN1CCOCC1)Nc1cc(C(=O)Nc2nc(-c3ccccc3)no2)ccc1OC(F)(F)F [Example 125, 3-[(morpholin-4-ylacetyl)amino]-N-(3-phenyl-1,2,4-oxadiazol-5-yl)-4-(trifluoromethoxy)benzamide]	
	40500	635	CC(C(=O)Nc1cc(C(=O)Nc2nnc(-c3ccccc3)s2)ccc1OC(F)(F)F)N1CCN(C2CC2)CC1 (stereo not drawn) [Example 234, 3-{[2-(4-cyclopropylpiperazin-1-yl)propanoyl]amino}-N-(5-phenyl-1,3,4-thiadiazol-2-yl)-4-(trifluoromethoxy)benzamide]	
	≥ 50000	173	O=C(Nc1nnc(-c2ccc(F)cc2)s1)c1ccc(OC(F)(F)F)c(NC(=O)C2(N3CCOCC3)CC2)c1 [Example 90, N-[5-(4-fluorophenyl)-1,3,4-thiadiazol-2-yl]-3-({[1-(morpholin-4-yl)cyclopropyl]carbonyl}amino)-4-(trifluoromethoxy)benzamide]	
	36000	805	COc1ccc(NC(=O)c2ccc(-c3ccccc3F)nc2)cc1NC(=O)CN1CCOCC1 [Example 31, 6-(2-fluorophenyl)-N-{4-methoxy-3-[(morpholin-4-ylacetyl)amino]phenyl}nicotinamide]	
8550			CC(C(=O)Nc1cc(C(=O)Nc2ccc(-c3ccccc3F)nc2)ccc1C(F)(F)F)N1CCOCC1 (stereo not drawn) [Example 207, N-[6-(2-fluorophenyl)pyridin-3-yl]-3-{[2-(morpholin-4-yl)propanoyl]amino}-4-(trifluoromethyl)benzamide]	153
	≥ 50000	152	Cc1cccc(-c2nnc(NC(=O)c3ccc(OC(F)(F)F)c(NC(=O)CN4CCN(C)CC4)c3)s2)c1 [Example 145, N-[5-(3-methylphenyl)-1,3,4-thiadiazol-2-yl]-3-{[(4-methylpiperazin-1-yl)acetyl]amino}-4-(trifluoromethoxy)benzamide]	
	≥ 50000	855	CCN1CCN(CC(=O)Nc2cc(C(=O)Nc3nnc(-c4ccccc4)s3)ccc2OC(F)(F)F)CC1 [Example 172, 3-{[(4-ethylpiperazin-1-yl)acetyl]amino}-N-(5-phenyl-1,3,4-thiadiazol-2-yl)-4-(trifluoromethoxy)benzamide]	

SMILES	IC50 [1] [nM]	IC50 ([1]; Homo sapiens, HCT-116, 36 h) [nM]	IC50 ([2]; Homo sapiens, HCT-116, 36 h) [nM]	IC50 [2] [nM]
C[C@@H](C(=O)Nc1cc(C(=O)Nc2ccc(-c3ccc(N(C)C)cc3)nc2)ccc1OC(F)(F)F)N1CCOCC1 (single isomer, unassigned) [Example 116, N-{6-[4-(dimethylamino)phenyl]pyridin-3-yl}-3-{[(2S)-2-(morpholin-4-yl)propanoyl]amino}-4-(trifluoromethoxy)benzamide or N-{6-[4-(dimethylamino)phenyl]pyridin-3-yl}-3-{[(2R)-2-(morpholin-4-yl)propanoyl]amino}-4-(trifluoromethoxy)benzamide]	8100			84
CC(C(=O)Nc1cc(C(=O)Nc2nnc(-c3ccccc3)s2)ccc1CS(C)(=O)=O)N1CCN(C)CC1 (stereo not drawn) [Example 88, 3-{[2-(4-methylpiperazin-1-yl)propanoyl]amino}-4-[(methylsulfonyl)methyl]-N-(5-phenyl-1,3,4-thiadiazol-2-yl)benzamide]	≥ 50000			417
Cc1ccc(C(=O)Nc2nnc(-c3ccccc3)s2)cc1NC(=O)C1(N2CCN(C)CC2)CC1 [Example 157, 4-methyl-3-({[1-(4-methylpiperazin-1-yl)cyclopropyl]carbonyl}amino)-N-(5-phenyl-1,3,4-thiadiazol-2-yl)benzamide hydrochloride (1:1)]		≥ 50000	96.6	
